The record followed here is patent US8357694B2, “Substituted 5,6-dihydro-6-phenylbenzo[F]isoquinolin-2-amine compounds” (ArQule, Inc., priority 2008, dated 2013).

Structures can show the parent of a compound that is named as a salt.

On to `Brc1cccc([C@@H]2Cc3cnc(Nc4ccc(CCN5CCCCC5)cc4)nc3-c3ccccc32)c1` (as salt: hydrochloride) [Example 78, (S)-6-(3-bromophenyl)-N-(4-(2-(piperidin-1-yl)ethyl)phenyl)-5,6-dihydrobenzo[h]quinazolin-2-amine hydrochloride], for which the melting point fell in the range of 120 to 125 °C. To `CN1CCN(CCc2ccc(Nc3ncc4c(n3)-c3ccccc3C(c3cccc(Br)c3)C4)cc2)CC1` (centres unmarked) [Example 28, 6-(3-bromophenyl)-N-(4-(2-(4-methylpiperazin-1-yl)ethyl)phenyl)-5,6-dihydrobenzo[h]quinazolin-2-amine] belongs 100 to 102 °C; to `Nc1ncc2c(n1)-c1ccccc1[C@H](c1ccccc1F)C2` (as salt: hydrochloride) [Example 24, (R)-6-(2-fluorophenyl)-5,6-dihydrobenzo[h]quinazolin-2-amine], 154 to 155 °C; to `Clc1ccc([C@H]2Cc3cnc(Nc4ccc(CCN5CCCCC5)cc4)nc3-c3ccccc32)cc1Cl`, 157 to 158 °C. To `CN(C)CCCNc1ncc2c(n1)-c1ccccc1[C@@H](c1ccc(Cl)c(Cl)c1)C2` [Example 12, (R)—N^1-(6-(3,4-dichlorophenyl)-5,6-dihydrobenzo[h]quinazolin-2-yl)-N^3,N^3-dimethylpropane-1,3-diamine] belongs 59 to 62 °C; to `Nc1ncc2c(n1)-c1ccccc1[C@@H](c1ccc(Cl)c(Cl)c1)C2`, 159 to 160 °C.

Take `COCCN1CCN(CCc2ccc(Nc3ncc4c(n3)-c3ccccc3[C@@H](c3ccccc3Cl)C4)cc2)CC1` (as salt: hydrochloride): the melting point lay within 143 to 145 °C. As for `OCCc1ccc(Nc2ncc3c(n2)-c2ccccc2C(c2ccc(Cl)c(Cl)c2)C3)cc1` (centres unmarked), the figure is 94 to 96 °C; as for `CN(CCc1ccccc1)CCc1ccc(Nc2ncc3c(n2)-c2ccccc2[C@H](c2cccc(Br)c2)C3)cc1` (as salt: HCl) [Example 81, (S)-6-(3-bromophenyl)-N-(4-(2-(methyl(phenethyl)amino)ethyl)phenyl)-5,6-dihydrobenzo[h]quinazolin-2-amine], 146 to 153 °C.

In turn, `Nc1cc2c(cn1)CC(c1ccc(Cl)cc1Cl)c1ccccc1-2` (centres unmarked) [Example 156, 6-(2,4-dichlorophenyl)-5,6-dihydrobenzo[f]isoquinolin-2-amine] displayed a melting point of 189 to 193 °C. `CCCCN(C)CCc1ccc(Nc2ncc3c(n2)-c2ccccc2C(c2cccc(Br)c2)C3)cc1` (centres unmarked) [Example 26, 6-(3-bromophenyl)-N-(4-(2-(butyl(methyl)amino)ethyl)phenyl)-5,6-dihydrobenzo[h]quinazolin-2-amine] had a melting point of 66 to 68 °C. As for `COCCN1CCN(CCc2ccc(Nc3ncc4c(n3)-c3ccccc3C(c3ccc(Cl)cc3Cl)C4)cc2)CC1` (centres unmarked) (as salt: hydrochloride), the figure is 208 to 212 °C; as for `N#Cc1c(N)ncc2c1-c1ccccc1C(c1ccc(Cl)cc1Cl)C2` (centres unmarked) [Example 151, 2-amino-6-(2,4-dichlorophenyl)-5,6-dihydrobenzo[f]isoquinoline-1-carbonitrile], 282 to 284 °C; as for `CCCCN(C)CCc1ccc(Nc2ncc3c(n2)-c2ccccc2[C@H](c2ccc(Cl)cc2)C3)cc1` (as salt: hydrochloride), 75 to 77 °C. As for `CC(C)c1ccc2c(c1)C(c1ccc(Cl)c(Cl)c1)Cc1cnc(N)nc1-2` (centres unmarked) [Example 20, 6-(3,4-dichlorophenyl)-8-isopropyl-5,6-dihydrobenzo[h]quinazolin-2-amine], the figure is 174 to 176 °C. In turn, `CN(CCc1ccc(Nc2ncc3c(n2)-c2ccccc2[C@H](c2ccccc2F)C3)cc1)C1CCCCC1` (as salt: HCl) [Example 95, (R)—N-(4-(2-(cyclohexyl(methyl)amino)ethyl)phenyl)-6-(2-fluorophenyl)-5,6-dihydrobenzo[h]quinazolin-2-amine] displayed a melting point of 158 to 164 °C. For the compound `CN1CCN(CCc2cccc(Nc3ncc4c(n3)-c3ccccc3[C@H](c3ccccc3F)C4)c2)CC1` (as salt: hydrochloride) [Example 161, (R)-6-(2-fluorophenyl)-N-(3-(2-(4-methylpiperazin-1-yl)ethyl)phenyl)-5,6-dihydrobenzo[h]quinazolin-2-amine hydrochloride], the melting point was 182 to 186 °C. Turning to `CN(C)CCCNc1ncc2c(n1)-c1ccccc1C(c1ccc(Cl)c(Cl)c1)C2` (centres unmarked) [Example 11, N^1-(6-(3,4-dichlorophenyl)-5,6-dihydrobenzo[h]quinazolin-2-yl)-N^3,N^3-dimethylpropane-1,3-diamine], the melting point is 110 to 114 °C. As for `CN(C)CCCNc1ncc2c(n1)-c1ccccc1C(c1cccc(Br)c1)C2` (centres unmarked) [Example 5, N^1-(6-(3-bromophenyl)-5,6-dihydrobenzo[h]quinazolin-2-yl)-N^3,N^3-dimethylpropane-1,3-diamine], the melting point was in the range of 120 to 122 °C.

In the case of `COCCN1CCN(CCc2ccc(Nc3ncc4c(n3)-c3ccccc3C(c3ccccc3C(F)(F)F)C4)cc2)CC1` (centres unmarked) [Example 69, N-(4-(2-(4-(2-methoxyethyl)piperazin-1-yl)ethyl)phenyl)-6-(2-(trifluoromethyl)phenyl)-5,6-dihydrobenzo[h]quinazolin-2-amine], the melting point fell in the range of 139 to 140 °C. As for `CCCCN(C)CCc1ccc(Nc2ncc3c(n2)-c2ccccc2[C@H](c2cccc(Br)c2)C3)cc1` (as salt: hydrochloride) [Example 80, (S)-6-(3-bromophenyl)-N-(4-(2-(butyl(methyl)amino)ethyl)phenyl)-5,6-dihydrobenzo[h]quinazolin-2-amine hydrochloride], the figure is 146 to 153 °C.

For the compound `CN(CCc1ccccc1)CCc1ccc(Nc2ncc3c(n2)-c2ccccc2C(c2cccc(Br)c2)C3)cc1` (centres unmarked) [Example 37, 6-(3-bromophenyl)-N-(4-(2-(methyl(phenethyl)amino)ethyl)phenyl)-5,6-dihydrobenzo[h]quinazolin-2-amine], the melting point fell in the range of 80 to 82 °C. As for `CCCCN(C)CCc1ccc(Nc2ncc3c(n2)-c2ccccc2C(c2ccc(F)c(F)c2)C3)cc1` (centres unmarked) (as salt: hydrochloride) [Example 58, N-(4-(2-(butyl(methyl)amino)ethyl)phenyl)-6-(3,4-difluorophenyl)-5,6-dihydrobenzo[h]quinazolin-2-amine], the figure is 85 to 91 °C; as for `Nc1ncc2c(n1)-c1ccc(-c3ccccc3)cc1C(c1ccc(Cl)c(Cl)c1)C2` (centres unmarked) [Example 21, 6-(3,4-dichlorophenyl)-8-phenyl-5,6-dihydrobenzo[h]quinazolin-2-amine], 186 to 187 °C; as for `CN(CCc1ccc(Nc2ncc3c(n2)-c2ccccc2[C@H](c2cccc(Br)c2)C3)cc1)C1CCCCC1` (as salt: hydrochloride) [Example 79, (S)-6-(3-bromophenyl)-N-(4-(2-(cyclohexyl(methyl)amino)ethyl)phenyl)-5,6-dihydrobenzo[h]quinazolin-2-amine hydrochloride], 167 to 172 °C. The compound `COCCNCCc1cc(Nc2ncc3c(n2)-c2ccccc2[C@H](c2ccccc2F)C3)ccc1F` (as salt: hydrochloride) [Example 173, (R)—N-(4-fluoro-3-(2-(2-methoxyethylamino)ethyl)phenyl)-6-(2-fluorophenyl)-5,6-dihydrobenzo[h]quinazolin-2-amine hydrochloride salt] came in with a melting point of 131 to 132 °C. Consider `Nc1ncc2c(n1)-c1ccccc1[C@H](c1ccc(Cl)c(Cl)c1)C2`, for which the melting point lay in the range of 159 to 160 °C. For `COCCNCCc1ccc(Nc2ncc3c(n2)-c2ccccc2[C@H](c2ccc(F)c(F)c2)C3)cc1` (as salt: hydrochloride) [Example 86, (S)-6-(3,4-difluorophenyl)-N-(4-(2-(2-methoxyethylamino)ethyl)phenyl)-5,6-dihydrobenzo[h]quinazolin-2-amine hydrochloride], the melting point lay in the range of 85 to 87 °C. As for `CN(C)CCNCCc1ccc(Nc2ncc3c(n2)-c2ccccc2C(c2cccc(Br)c2)C3)cc1` (centres unmarked) [Example 44, N^1-(4-(6-(3-bromophenyl)-5,6-dihydrobenzo[h]quinazolin-2-ylamino)phenethyl)-N^2,N^2-dimethylethane-1,2-diamine], the figure is 75 to 77 °C; as for `CN(CCc1ccc(Nc2ncc3c(n2)-c2ccccc2[C@H](c2ccc(F)c(F)c2)C3)cc1)C1CCCCC1` (as salt: hydrochloride) [Example 85, (S)—N-(4-(2-(cyclohexyl(methyl)amino)ethyl)phenyl)-6-(3,4-difluorophenyl)-5,6-dihydrobenzo[h]quinazolin-2-amine hydrochloride], 96 to 98 °C; as for `N#Cc1c(NCCCN2CCCC2)ncc2c1-c1ccccc1C(c1ccc(Cl)c(Cl)c1)C2` (centres unmarked) [Example 180, 6-(3,4-dichlorophenyl)-2-(3-(pyrrolidin-1-yl)propylamino)-5,6-dihydrobenzo[f]isoquinoline-1-carbonitrile], 104 to 110 °C. To `CC(C)(C)OC(=O)N1CCC(Nc2ncc3c(n2)-c2ccccc2C(c2ccc(Cl)c(Cl)c2)C3)CC1` (centres unmarked) [Example 19, tert-butyl 4-(6-(3,4-dichlorophenyl)-5,6-dihydrobenzo[h]quinazolin-2-ylamino)piperidine-1-carboxylate] belongs 94 to 96 °C; to `Brc1cccc(C2Cc3cnc(Nc4ccc(CCNCCN5CCCC5)cc4)nc3-c3ccccc32)c1` (centres unmarked) [Example 47, 6-(3-bromophenyl)-N-(4-(2-(2-(pyrrolidin-1-yl)ethylamino)ethyl)phenyl)-5,6-dihydrobenzo[h]quinazolin-2-amine], 83 to 85 °C. As for `CN1CCN(CCc2ccc(Nc3ncc4c(n3)-c3ccccc3C(c3ccc(Cl)c(Cl)c3)C4)cc2)CC1` (centres unmarked) [Example 52, 6-(3,4-dichlorophenyl)-N-(4-(2-(4-methylpiperazin-1-yl)ethyl)phenyl)-5,6-dihydrobenzo[h]quinazolin-2-amine], the melting point lay in the range of 119 to 121 °C. To `Brc1ccc([C@@H]2Cc3cnc(Nc4ccc(CCN5CCCCC5)cc4)nc3-c3ccccc32)cc1` (as salt: hydrochloride) [Example 103, (S)-6-(4-bromophenyl)-N-(4-(2-(piperidin-1-yl)ethyl)phenyl)-5,6-dihydrobenzo[h]quinazolin-2-amine hydrochloride salt] belongs 205 to 210 °C.

Broadly, the melting point is the temperature, or range, at which the solid turns liquid.
